Test results: patent US10208089B2, “Modulation of complement activity” (priority 2014, dated 2019)
Starred links: 1 amine or outer side, 2 acyl side, 3 side chain; linkers in the order of their positions; H or OH if unused. Positions of bridges follow the written chain, without caps; N, C: chain ends. Non-standard residues stand in square brackets, D forms with d. Residues, ends and D or L forms follow the SMILES beside them. Trp(5-F) = N[C@@H](Cc1c[nH]c2ccc(F)cc12)C(=O)O; Trp(7-aza) = N[C@@H](Cc1c[nH]c2ncccc12)C(=O)O; NMePhe(4-F) = CN[C@@H](Cc1ccc(F)cc1)C(=O)O; Phe(4-F) = N[C@@H](Cc1ccc(F)cc1)C(=O)O; Phg(2-OMe) = COc1ccccc1[C@H](N)C(=O)O; mXylylene = c1cc(C[*:1])cc(C[*:2])c1; pXylylene = c1cc(C[*:2])ccc1C[*:1]; Chg = N[C@H](C(=O)O)C1CCCCC1; Phg = N[C@H](C(=O)O)c1ccccc1; Tle = CC(C)(C)[C@H](N)C(=O)O; NMeS = CN[C@@H](CO)C(=O)O; Nva = CCC[C@H](N)C(=O)O

target: C5 (Homo sapiens, UniProt P01031); assay: Human hemolysis assay (RBC lysis assay using complete human sera); format: cell-based; design: with complete human sera (Complement Technology, Tyler Tex.) and polypeptides; tissue Complement Technology, Tyler Tex; host or cells: complete human serum; conditions: 7-azatryptophan variant polypeptides of R3008; inhibition of red blood cell lysis
Sequence (P01031 19-1676): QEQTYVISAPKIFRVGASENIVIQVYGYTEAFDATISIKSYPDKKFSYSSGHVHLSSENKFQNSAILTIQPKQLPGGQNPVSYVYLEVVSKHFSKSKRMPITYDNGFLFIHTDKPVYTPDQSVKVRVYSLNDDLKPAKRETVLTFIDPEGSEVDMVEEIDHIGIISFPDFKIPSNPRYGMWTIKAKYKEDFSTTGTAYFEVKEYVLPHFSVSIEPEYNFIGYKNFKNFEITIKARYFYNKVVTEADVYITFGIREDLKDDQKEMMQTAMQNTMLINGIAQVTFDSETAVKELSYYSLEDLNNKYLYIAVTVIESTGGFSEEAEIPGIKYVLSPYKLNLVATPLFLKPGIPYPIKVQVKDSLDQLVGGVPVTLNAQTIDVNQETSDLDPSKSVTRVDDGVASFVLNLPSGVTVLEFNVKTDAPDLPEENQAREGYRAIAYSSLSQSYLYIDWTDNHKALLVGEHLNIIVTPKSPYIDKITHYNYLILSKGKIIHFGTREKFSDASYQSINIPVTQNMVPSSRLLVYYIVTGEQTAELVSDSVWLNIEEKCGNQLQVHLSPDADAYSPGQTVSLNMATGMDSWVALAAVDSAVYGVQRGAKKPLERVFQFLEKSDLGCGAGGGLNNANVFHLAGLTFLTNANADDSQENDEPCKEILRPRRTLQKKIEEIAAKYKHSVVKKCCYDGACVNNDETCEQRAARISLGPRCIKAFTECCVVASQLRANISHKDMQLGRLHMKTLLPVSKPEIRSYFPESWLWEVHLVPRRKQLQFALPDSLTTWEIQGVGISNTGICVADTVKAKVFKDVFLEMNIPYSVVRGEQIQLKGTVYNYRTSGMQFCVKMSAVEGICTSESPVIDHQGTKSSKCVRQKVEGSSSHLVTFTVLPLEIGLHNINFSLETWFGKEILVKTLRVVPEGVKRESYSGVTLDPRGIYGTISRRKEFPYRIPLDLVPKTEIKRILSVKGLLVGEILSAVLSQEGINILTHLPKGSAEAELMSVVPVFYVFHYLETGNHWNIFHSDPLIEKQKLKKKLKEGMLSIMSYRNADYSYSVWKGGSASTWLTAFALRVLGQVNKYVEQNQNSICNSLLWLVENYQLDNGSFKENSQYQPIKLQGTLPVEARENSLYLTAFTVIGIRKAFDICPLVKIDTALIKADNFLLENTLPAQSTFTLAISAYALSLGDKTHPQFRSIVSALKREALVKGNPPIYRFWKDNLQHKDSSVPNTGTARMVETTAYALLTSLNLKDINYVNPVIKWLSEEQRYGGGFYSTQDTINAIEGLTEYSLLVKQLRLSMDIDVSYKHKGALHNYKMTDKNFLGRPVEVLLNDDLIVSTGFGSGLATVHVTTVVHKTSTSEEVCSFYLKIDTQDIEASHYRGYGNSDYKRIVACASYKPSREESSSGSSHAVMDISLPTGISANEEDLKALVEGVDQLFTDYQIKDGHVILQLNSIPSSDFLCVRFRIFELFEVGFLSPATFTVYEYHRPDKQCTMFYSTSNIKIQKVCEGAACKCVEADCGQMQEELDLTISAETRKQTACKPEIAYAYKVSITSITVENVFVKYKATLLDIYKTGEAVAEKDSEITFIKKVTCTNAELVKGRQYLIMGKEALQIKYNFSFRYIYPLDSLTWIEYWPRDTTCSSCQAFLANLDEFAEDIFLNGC

SMILES | IC50 [µM]
CCC[C@H](NC(=O)[C@@H]1CSCc2cccc(c2)CSC[C@H](NC(=O)[C@H](CCC)NC(C)=O)C(=O)N[C@@H](c2ccccc2)C(=O)N[C@@H]([C@@H](C)O)C(=O)N[C@@H](Cc2c[nH]c3ccc(F)cc23)C(=O)N[C@@H](CCC(=O)O)C(=O)N[C@@H](Cc2ccc(O)cc2)C(=O)N(C)[C@@H](CO)C(=O)N[C@@H](C)C(=O)N1)C(N)=O [Compound R3088, [mXyly1(2,10)]Ac-Nvl-C-Phg-T-(5-F)W-E-Y-(N-Me)S-A-C-Nvl-NH2] (Ac-[Nva]C[Phg]T[Trp(5-F)]EY[NMeS]AC[Nva]-NH2; linker 2-10 via mXylylene) | > 100
CCC[C@H](NC(=O)[C@@H]1CSCc2cccc(c2)CSC[C@H](NC(=O)[C@H](CCC)NC(C)=O)C(=O)N[C@@H](c2ccccc2)C(=O)N[C@@H]([C@@H](C)O)C(=O)N[C@@H](Cc2ccccc2)C(=O)N[C@@H](CCC(=O)O)C(=O)N[C@@H](Cc2ccc(O)cc2)C(=O)N(C)[C@@H](CO)C(=O)N[C@@H](C)C(=O)N1)C(N)=O [Compound R3092, [mXylyl(2,10)]Ac-Nvl-C-Phg-T-F-E-Y-(N-Me)S-A-C-Nvl-NH2] (Ac-[Nva]C[Phg]TFEY[NMeS]AC[Nva]-NH2; linker 2-10 via mXylylene) | > 50

same assay, conditions: inhibition of lysis of antibody-sensitized sheep erythrocytes, complete human sera

SMILES | IC50 [µM]
CCC[C@H](NC(=O)[C@@H]1CSCc2ccc(cc2)CSC[C@H](NC(=O)[C@H](CCC)NC(C)=O)C(=O)N[C@@H](c2ccccc2)C(=O)N[C@@H]([C@@H](C)O)C(=O)N[C@@H](Cc2c[nH]c3ncccc23)C(=O)N[C@@H](CCC(=O)O)C(=O)N[C@@H](Cc2ccc(O)cc2)C(=O)N2CCC[C@H]2C(=O)N[C@@H](Cc2c[nH]cn2)C(=O)N1)C(N)=O [Compound R3065, [pXy1y1(2,10)]Ac-Nvl-C-PhE-T-azaTrp-E-Y-P-H-C-Nvl-NH2] (Ac-[Nva]C[Phg]T[Trp(7-aza)]EYPHC[Nva]-NH2; linker 2-10 via pXylylene) | 0.394
CCC[C@H](NC(C)=O)C(=O)N[C@@H](CCC)C(=O)N[C@@H](Cc1ccc(O)cc1)C(=O)N[C@@H](CCC(=O)O)C(=O)N[C@@H](CC(N)=O)C(=O)N[C@H](C(=O)N[C@@H](Cc1ccc(O)cc1)C(=O)N[C@@H](Cc1c[nH]c2ncccc12)C(=O)N[C@@H](CCC(=O)O)C(=O)N[C@@H](Cc1ccc(O)cc1)C(=O)N1CCC[C@H]1C(=O)N[C@H](C(=O)N[C@@H](CCC)C(=O)N[C@@H](CCCCN)C(N)=O)C1CCCCC1)C(C)(C)C [Compound R3072, Ac-Nvl-Nvl-Y-E-N-Tbg-Y-azaTrp-E-Y-P-Chg-Nvl-K-NH2] (Ac-[Nva][Nva]YEN[Tle]Y[Trp(7-aza)]EYP[Chg][Nva]K-NH2) | 0.0269
CCC[C@H](NC(=O)[C@@H]1CSCc2cccc(c2)CSC[C@H](NC(=O)[C@H](CCC)NC(C)=O)C(=O)N[C@@H](c2ccccc2)C(=O)N[C@@H]([C@@H](C)O)C(=O)N[C@@H](Cc2c[nH]c3ncccc23)C(=O)N[C@@H](CCC(=O)O)C(=O)N[C@@H](Cc2ccc(F)cc2)C(=O)N(C)[C@@H](CO)C(=O)N[C@@H](Cc2c[nH]cn2)C(=O)N1)C(N)=O [Compound R3073, [mXyly1(2,10)]Ac-Nvl-C-Phg-T-azaTrp-E-Phe(4-F)-(N-Me)S-H-C-Nvl-NH2] (Ac-[Nva]C[Phg]T[Trp(7-aza)]E[Phe(4-F)][NMeS]HC[Nva]-NH2; linker 2-10 via mXylylene) | 0.403
CCC[C@H](NC(=O)[C@@H]1CSCc2cccc(c2)CSC[C@H](NC(=O)[C@H](CCC)NC(C)=O)C(=O)N[C@@H](c2ccccc2)C(=O)N[C@@H]([C@@H](C)O)C(=O)N[C@@H](Cc2c[nH]c3ncccc23)C(=O)N[C@@H](CCC(=O)O)C(=O)N[C@@H](Cc2ccc(OC)cc2)C(=O)N(C)[C@@H](CO)C(=O)N[C@@H](Cc2c[nH]cn2)C(=O)N1)C(N)=O [Compound R3074, [mXylyl(2,10)]Ac-Nvl-C-Phg-T-azaTrp-E-Tyr(OMe)-(N-Me)S-H-C-Nvl-NH2] (Ac-[Nva]C[Phg]T[Trp(7-aza)]EY(Me)[NMeS]HC[Nva]-NH2; linker 2-10 via mXylylene) | 0.308
CCC[C@H](N)C(=O)N[C@H]1CSCc2cccc(c2)CSC[C@@H](C(N)=O)NC(=O)CNC(=O)[C@H](Cc2ccc(F)cc2)N(C)C(=O)[C@H](Cc2c[nH]cn2)NC(=O)[C@H](CO)N(C)C(=O)[C@H](Cc2ccc(F)cc2)N(C)C(=O)[C@H](c2ccccc2)NC(=O)[C@H](CO)N(C)C(=O)[C@H](Cc2ccc(O)cc2)NC1=O [Compound R3075, [mXylyl(2,11)]Nvl-C-Y-(N-Me)S-Phg-(N-Me-4-F)Phe-(N-Me)S-H-(N-Me-4-F)Phe-G-C-NH2] (H-[Nva]CY[NMeS][Phg][NMePhe(4-F)][NMeS]H[NMePhe(4-F)]GC-NH2; linker 2-11 via mXylylene) | > 75
CCC[C@H](NC(=O)[C@@H]1CSCc2cccc(c2)CSC[C@H](NC(=O)[C@H](CCC)NC(C)=O)C(=O)N[C@@H](c2ccccc2)C(=O)N[C@@H]([C@@H](C)O)C(=O)N[C@@H](Cc2c[nH]c3ncccc23)C(=O)N[C@@H](CCC(=O)O)C(=O)N[C@@H](Cc2ccc(O)cc2)C(=O)N(C)[C@@H](CO)C(=O)N1)C(N)=O [Compound R3080, [mXylyl(2,9)]Ac-Nvl-C-Pha-T-azaTrp-E-Y-(N-Me)S-C-Nvl-NH2] (Ac-[Nva]C[Phg]T[Trp(7-aza)]EY[NMeS]C[Nva]-NH2; linker 2-9 via mXylylene) | > 50
CCC[C@H](NC(=O)[C@@H]1CSCc2cccc(c2)CSC[C@H](NC(=O)[C@@H](NC(C)=O)C(C)C)C(=O)N[C@@H](c2ccccc2)C(=O)N[C@@H]([C@@H](C)O)C(=O)N[C@@H](Cc2c[nH]c3ncccc23)C(=O)N[C@@H](CCC(=O)O)C(=O)N[C@@H](Cc2ccc(O)cc2)C(=O)N(C)[C@@H](CO)C(=O)N[C@@H](C)C(=O)N1)C(N)=O [Compound R3083, [mXylyl(2,10)]Ac-V-C-Phg-T-azaTrp-E-Y-(N-Me)S-A-C-Nvl-NH2] (Ac-VC[Phg]T[Trp(7-aza)]EY[NMeS]AC[Nva]-NH2; linker 2-10 via mXylylene) | > 25
CCC[C@H](NC(=O)[C@@H]1CSCc2cccc(c2)CSC[C@H](NC(=O)[C@H](CCC)NC(C)=O)C(=O)N[C@@H](c2ccccc2)C(=O)N[C@@H]([C@@H](C)O)C(=O)N[C@@H](Cc2c[nH]c3ncccc23)C(=O)N[C@@H](CCC(=O)O)C(=O)N[C@@H](Cc2ccc(O)cc2)C(=O)N[C@@H](CO)C(=O)N[C@@H](C)C(=O)N1)C(N)=O [Compound R3084, [mXylyl(2,10)]Ac-Nvl-C-Phg-T-azaTrp-E-Y-S-A-C-Nvl-NH2] (Ac-[Nva]C[Phg]T[Trp(7-aza)]EYSAC[Nva]-NH2; linker 2-10 via mXylylene) | > 100
CCC[C@H](NC(=O)[C@@H]1CSCc2cccc(c2)CSC[C@H](NC(=O)[C@H](CCC(=O)O)NC(=O)[C@H](Cc2ccc(O)cc2)NC(=O)[C@H](CO)NC(=O)[C@H](CCC)NC(C)=O)C(=O)N[C@@H](C(C)(C)C)C(=O)N[C@@H](Cc2ccc(O)cc2)C(=O)N[C@@H](Cc2c[nH]c3ncccc23)C(=O)N[C@@H](CCC(=O)O)C(=O)N[C@@H](Cc2ccc(O)cc2)C(=O)N2CCC[C@H]2C(=O)N[C@@H](C2CCCCC2)C(=O)N1)C(N)=O [Compound R3086, [mXylyl(5,13)]Ac-Nvl-S-Y-E-C-Tbg-Y-azaTrp-E-Y-P-Chg-C-Nvl-NH2] (Ac-[Nva]SYEC[Tle]Y[Trp(7-aza)]EYP[Chg]C[Nva]-NH2; linker 5-13 via mXylylene) | > 50
CCC[C@H](NC(=O)[C@@H]1CSCc2cccc(c2)CSC[C@H](NC(=O)[C@H](CCC)NC(C)=O)C(=O)N[C@@H](c2ccccc2OC)C(=O)N[C@@H]([C@@H](C)O)C(=O)N[C@@H](Cc2c[nH]c3ncccc23)C(=O)N[C@@H](CCC(=O)O)C(=O)N[C@@H](Cc2ccc(O)cc2)C(=O)N(C)[C@@H](CO)C(=O)N[C@@H](Cc2c[nH]cn2)C(=O)N1)C(N)=O [Compound R3087, [mXylyl(2,10)]Ac-Nvl-C-(2-OMe)Phg-T-azaTrp-E-Y-(N-Me)S-H-C-Nvl-NH2] (Ac-[Nva]C[Phg(2-OMe)]T[Trp(7-aza)]EY[NMeS]HC[Nva]-NH2; linker 2-10 via mXylylene) | > 25
CCC[C@H](NC(=O)[C@@H]1CSCc2cccc(c2)CSC[C@H](NC(=O)[C@H](CCC)NC(C)=O)C(=O)N[C@@H](c2ccccc2)C(=O)N[C@@H]([C@@H](C)O)C(=O)N[C@@H](Cc2c[nH]c3ccc(F)cc23)C(=O)N[C@@H](CCC(=O)O)C(=O)N[C@@H](Cc2ccc(O)cc2)C(=O)N(C)[C@@H](CO)C(=O)N[C@@H](C)C(=O)N1)C(N)=O [Compound R3088, [mXyly1(2,10)]Ac-Nvl-C-Phg-T-(5-F)W-E-Y-(N-Me)S-A-C-Nvl-NH2] (Ac-[Nva]C[Phg]T[Trp(5-F)]EY[NMeS]AC[Nva]-NH2; linker 2-10 via mXylylene) | > 100
CCC[C@H](NC(=O)[C@@H]1CSCc2cccc(c2)CSC[C@H](NC(=O)[C@@H](NC(C)=O)C2CCCCC2)C(=O)N[C@@H](c2ccccc2)C(=O)N[C@@H]([C@@H](C)O)C(=O)N[C@@H](Cc2c[nH]c3ncccc23)C(=O)N[C@@H](CCC(=O)O)C(=O)N[C@@H](Cc2ccc(O)cc2)C(=O)N(C)[C@@H](CO)C(=O)N[C@@H](C)C(=O)N1)C(N)=O [Compound R3089, [mXylyl(2,10)]Ac-Chg-C-Phg-T-azaTrp-E-Y-(N-Me)S-A-C-Nvl-NH2] (Ac-[Chg]C[Phg]T[Trp(7-aza)]EY[NMeS]AC[Nva]-NH2; linker 2-10 via mXylylene) | > 15
CCC[C@H](NC(=O)[C@@H]1CSCc2cccc(c2)CSC[C@H](NC(=O)[C@H](CCC)NC(C)=O)C(=O)N[C@@H](Cc2ccccc2)C(=O)N[C@@H]([C@@H](C)O)C(=O)N[C@@H](Cc2c[nH]c3ncccc23)C(=O)N[C@@H](CCC(=O)O)C(=O)N[C@@H](Cc2ccc(O)cc2)C(=O)N(C)[C@@H](CO)C(=O)N[C@@H](C)C(=O)N1)C(N)=O [Compound R3090, [mXyly1(2,10)]Ac-Nvl-C-F-T-azaTrp-E-Y-(N-Me)S-A-C-Nvl-NH2] (Ac-[Nva]CFT[Trp(7-aza)]EY[NMeS]AC[Nva]-NH2; linker 2-10 via mXylylene) | > 100
CCC[C@H](NC(=O)[C@@H]1CSCc2cccc(c2)CSC[C@H](NC(=O)[C@H](CCC)NC(C)=O)C(=O)N[C@@H](c2ccccc2)C(=O)N[C@@H]([C@@H](C)O)C(=O)N[C@@H](Cc2c[nH]c3ccccc23)C(=O)N[C@@H](CCC(=O)O)C(=O)N[C@@H](Cc2ccc(O)cc2)C(=O)N(C)[C@@H](CO)C(=O)N[C@@H](C)C(=O)N1)C(N)=O [Compound R3091, [mXylyl(2,10)]Ac-Nvl-C-Phg-T-W-E-Y-(N-Me)S-A-C-Nvl-NH2] (Ac-[Nva]C[Phg]TWEY[NMeS]AC[Nva]-NH2; linker 2-10 via mXylylene) | 0.483
CCC[C@H](NC(=O)[C@@H]1CSCc2cccc(c2)CSC[C@H](NC(=O)[C@H](CCC)NC(C)=O)C(=O)N[C@@H](c2ccccc2)C(=O)N[C@@H]([C@@H](C)O)C(=O)N[C@@H](Cc2ccccc2)C(=O)N[C@@H](CCC(=O)O)C(=O)N[C@@H](Cc2ccc(O)cc2)C(=O)N(C)[C@@H](CO)C(=O)N[C@@H](C)C(=O)N1)C(N)=O [Compound R3092, [mXylyl(2,10)]Ac-Nvl-C-Phg-T-F-E-Y-(N-Me)S-A-C-Nvl-NH2] (Ac-[Nva]C[Phg]TFEY[NMeS]AC[Nva]-NH2; linker 2-10 via mXylylene) | > 50
